Here are results for eleven molecules from ChEMBL document CHEMBL5120765, “Synthesis of novel 1-phenyl-benzopyrrolizidin-3-one derivatives and evaluation of their cytoneuroprotective effects against NMDA-induced injury in PC12 cells” (Bioorg Med Chem, 2022).

Calls of active or inactive are those of the source. No cut-off for these calls is given here.

In assay [1] the test system is PC-12. Put plainly: Neuroprotective activity against NMDA-induced excitotoxicity in rat PC-12 cells assessed as increase in cell viability at 20 uM pretreated for 24 hr followed by NMDA addition and measured after 6 hrs by MTT assay. Format: functional. (Formazan colour is commonly taken as a measure of viable cells.)
In assay [2] the test system is PC-12. Put plainly: Neuroprotective activity against NMDA-induced excitotoxicity in rat PC-12 cells assessed as increase in cell viability pretreated for 24 hr followed by NMDA addition and measured after 6 hrs by MTT assay. Format: functional, cell-based. The note with it: dose 2.5-20 µM, time 30.0 hrs, DDE = dose-dependent effect.
For assay [3], the system named is PC-12. In words: Neuroprotective activity against NMDA-induced excitotoxicity in rat PC-12 cells assessed as increase in cell viability at 5 uM pretreated for 24 hr followed by NMDA addition and measured after 6 hrs by MTT assay. In kind it is functional, cell-based. The note with it: time 30.0 hrs.
The test system of assay [4] is PC-12. Put plainly: Neuroprotective effect against NMDA-induced rat PC-12 cells assessed as prevention of morphological changes at 15 uM. Format: functional, cell-based.
Assay [5] deals with PC-12. In words: Inhibition of NMDA-induced Ca2+ influx in rat PC-12 cells assessed as reduction in intracellular Ca2+ concentration at 15 uM pretreated for 24 hr followed by NMDA addition and measured after 6 hrs by Fluo2-AM staining based fluorescence microscopic method. In kind it is functional, cell-based. The note with it: time 30.0 hrs.
For assay [6], the system named is PC-12. Put plainly: Neuroprotective activity against NMDA-induced excitotoxicity in rat PC-12 cells assessed as increase in cell viability at 15 uM pretreated for 24 hr followed by NMDA addition and measured after 6 hrs by MTT assay. The note with it: time 30 hrs. In kind it is functional.

Take `COc1cc(OC)cc([C@@H]2CC(=O)N3c4ccccc4C[C@H]23)c1` (racemic): the outcome in the assay on PC-12 [1] (time 30.0 hrs) was Active. The same measure, in the same setting: for `O=C1C[C@@H](c2ccccc2)[C@H]2Cc3ccccc3N12` (racemic) the value was “Active”. Consider `COc1c(OCc2ccccc2)cccc1[C@@H]1CC(=O)N2c3ccccc3C[C@H]12` (racemic), for which the result in the assay on PC-12 [1] (time 30.0 hrs) was Active. Same read-out and setting: for `COc1ccccc1[C@@H]1CC(=O)N2c3ccccc3C[C@H]12` (racemic) the value was “Active”. For the molecule `O=C1C[C@@H](c2cccc(OCc3ccccc3)c2)[C@H]2Cc3c(F)cccc3N12` (racemic), the Activity result is “Dde” in the assay with PC-12 [2], 96.16% in the assay with PC-12 [6] and 94.59% with PC-12 [1] (time 30 hrs). Also, the result with PC-12 [3] and with PC-12 [4] was Active. The inhibition result with PC-12 [5] is “Active”.

As for `O=C1C[C@@H](c2cccc(OCc3ccccc3)c2)[C@H]2Cc3cc(OCc4ccccc4)ccc3N12` (racemic), the outcome in the assay with PC-12 [1] (time 30.0 hrs) was Active.

Turning to `C[C@]12N[C@H](Cc3ccccc31)c1ccccc12.O=C(O)/C=C\C(=O)O` [DIZOCILPINE MALEATE], the Activity entry is “Dde” in the assay on PC-12 [2], 96.96% in the assay on PC-12 [6] and 95.48% in the assay on PC-12 [1] (time 30 hrs). The outcome with PC-12 [3] and with PC-12 [4] was Active. Moreover, in the assay with PC-12 [5], the inhibition entry was “Active”.

In the case of `O=C1C[C@H](c2cccc(OCc3ccccc3)c2)[C@H]2Cc3ccccc3N12` (racemic), in the assay on PC-12 [1] (time 30.0 hrs), the result was Active. Consider `COc1ccc([C@@H]2CC(=O)N3c4ccccc4C[C@H]23)cc1` (racemic), for which, in the assay on PC-12 [1] (time 30.0 hrs), the result was Active.

For `O=C1C[C@H](c2cccc(OCc3ccccc3)c2)[C@H]2Cc3c(F)cccc3N12` (racemic), the outcome in the assay on PC-12 [1] (time 30.0 hrs) was Active. Same read-out and setting: then `O=C1C[C@@H](c2cccc(OCc3ccccc3)c2)[C@H]2Cc3ccccc3N12` (racemic), with “Active”.
